System: hepatocellular carcinoma cell line Hub-7
Test: Cell proliferation assay, Hub-7 (CELL-TITER GLO)
Assay type: cell-based
Details: Hub-7 cells, 24 h incubation, cell viability by CELL-TITER GLO, top concentration 10 μM; read-out: EC50, Inhibition of Hub-7 Cell Proliferation
Method: The activity of a compound was determined in a cell proliferation assay using the hepatocellular carcinoma cell line Hub-7. Cells (4,000 cells per well) were seeded in a 96-well tissue culture plate. After incubated overnight, the compound was added at predetermined concentrations, starting with 10 μM and followed by 3-fold serial dilution. After the cells were incubated for 24 h, cell viability was determined using a CELL-TITER GLO® assay. The CELL-TITER GLO® reagent (50 μL) was added to each well and the luminescence was measured by a multimode microplate reader after a brief period of shaking. EC50 values were determined for the compound. The results are summarized in Table 1, wherein A represents a value no greater than 200 nM, B represents a value greater than 200 nM but no greater than 1 μM, C represents a value greater than 1 μM but no greater than 5 μM, and D represents a value greater than 5 μM.

Row | EC50 [µM] | SMILES
1 | 0.2 to 1 | C#Cc1nc(C(=O)N[C@@H]2CCc3ccccc32)cs1 [Compound C72, (R)—N-(2,3-Dihydro-1H-inden-1-yl)-2-ethynylthiazole-4-carboxamide]
2 | ≤ 0.2 | C#Cc1nc(NC(=O)NCc2ccc(-c3cccc4ncsc34)cc2)cs1 [Compound A6, 1-(4-(benzo[d]thiazol-7-yl)benzyl)-3-(2-ethynylthiazol-4-yl)urea]
3 | 0.2 to 1 | C#Cc1nc(C(=O)NCCc2cccc(Cl)c2)cs1 [Compound C110, N-(3-Chlorophenethyl)-2-ethynylthiazole-4-carboxamide]
4 | 0.2 to 1 | C#Cc1nc(C(=O)N2CCN(c3ccc(C#N)cc3)CC2)cs1 [Compound D26, 4-(4-(2-Ethynylthiazole-4-carbonyl)piperazin-1-yl)benzonitrile]
5 | 0.2 to 1 | C#Cc1nc(C(=O)NCCc2ccc(-c3cccc4nn(C)cc34)cc2)cs1 [Compound C32, 2-Ethynyl-N-(4-(2-methyl-2H-indazol-4-yl)phenethyl)thiazole-4-carboxamide]
6 | 0.2 to 1 | C#Cc1nc(C(=O)N2CCC(c3cccc(-c4cccc5ncsc45)c3)CC2)cs1 [Compound D15, (4-(3-(Benzo[d]thiazol-7-yl)phenyl)piperidin-1-yl)(2-ethynylthiazol-4-yl)-methanone]
7 | > 5 | C#Cc1nc(C(=O)NCc2ccn(C)n2)cs1 [Compound C119, 2-Ethynyl-N-((1-methyl-1H-pyrazol-3-yl)methyl)thiazole-4-carboxamide]
8 | 1 to 5 | C#Cc1ncc(C(=O)NCc2ccccc2)s1 [Compound C141, N-Benzyl-2-ethynylthiazole-5-carboxamide]
9 | 0.2 to 1 | C#Cc1nc(C(=O)NCCc2ccc(-c3cncs3)cc2)cs1 [Compound C57, 2-Ethynyl-N-(4-(thiazol-5-yl)phenethyl)thiazole-4-carboxamide]
10 | 1 to 5 | C#Cc1nc(C(=O)NCc2cccc(NC(C)=O)c2)cs1 [Compound C94, N-(3-Acetamidobenzyl)-2-ethynylthiazole-4-carboxamide]
11 | 1 to 5 | C#Cc1nc(NC(=O)[C@@H](N)Cc2ccccc2C#N)cs1 [Compound E8, (S)-2-Amino-3-(2-cyanophenyl)-N-(2-ethynylthiazol-4-yl)propenamide]
12 | 1 to 5 | C#Cc1nc(C(=O)NCc2ccccc2N)cs1 [Compound C140, N-(2-Aminobenzyl)-2-ethynylthiazole-4-carboxamide]
13 | 0.2 to 1 | C#Cc1nc(C(=O)NCCc2ccc(-c3cccc4ncccc34)cc2)cs1 [Compound C23, 2-Ethynyl-N-(4-(quinolin-5-yl)phenethyl)thiazole-4-carboxamide]
14 | 0.2 to 1 | C#Cc1nc(C(=O)NCCc2ccc(-c3cccc4c3C(=O)CC4)cc2)cs1 [Compound C18, 2-Ethynyl-N-(4-(3-oxo-2,3-dihydro-1H-inden-4-yl)phenethyl)thiazole-4-carboxamide]
15 | ≤ 0.2 | C#Cc1nc(C(=O)NCc2cccc(-c3ccccc3)c2)cs1 [Compound C115, N-([1,1′-Biphenyl]-3-ylmethyl)-2-ethynylthiazole-4-carboxamide]
16 | 0.2 to 1 | C#Cc1nc(C(=O)NCCc2ccc(-c3cc(C(=O)NC)cc4ncsc34)cc2)cs1 [Compound C9, 7-(4-(2-(2-Ethynylthiazole-4-carboxamido)ethyl)phenyl)-N-methylbenzo[d]-thiazole-5-carboxamide]
17 | 0.2 to 1 | C#Cc1nc(C(=O)NCCc2ccc(-c3cccc4scnc34)cc2)cs1 [Compound C31, N-(4-(Benzo[d]thiazol-4-yl)phenethyl)-2-ethynylthiazole-4-carboxamide]
18 | 1 to 5 | C#Cc1nc(C(=O)NCc2cccc(N)c2)cs1 [Compound C95, N-(3-Aminobenzyl)-2-ethynylthiazole-4-carboxamide]
19 | 0.2 to 1 | C#Cc1nc(C(=O)NCCc2ccc(-c3cncc4ncsc34)cc2)cs1 [Compound C19, 2-Ethynyl-N-(4-(thiazolo[4,5-c]pyridin-7-yl)phenethyl)thiazole-4-carboxamide]
20 | 1 to 5 | C#Cc1nc(C(=O)NCc2ccc(S(C)(=O)=O)cc2)cs1 [Compound C108, 2-Ethynyl-N-(4-(methylsulfonyl)benzyl)thiazole-4-carboxamide]
21 | 1 to 5 | C#Cc1nc(C(=O)NCCc2ccc(C(=O)OC)cc2)cs1 [Compound C84, Methyl 4-(2-(2-ethynylthiazole-4-carboxamido)ethyl)benzoate]
22 | 0.2 to 1 | C#Cc1nc(C(=O)NCCc2cccc(C(=O)OC)c2)cs1 [Compound C97, Methyl 3-(2-(2-ethynylthiazole-4-carboxamido)ethyl)benzoate]
23 | 0.2 to 1 | C#Cc1nc(C(=O)NCc2ccc(-c3cscn3)cc2)cs1 [Compound C55, 2-Ethynyl-N-(4-(thiazol-4-yl)benzyl)thiazole-4-carboxamide]

Row | EC50 [µM] | SMILES
24 | 0.2 to 1 | C#Cc1nc(NC(=O)NCc2ccc(-c3cc4ncsc4cc3F)cc2)cs1 [Compound A12, 1-(2-Ethynylthiazol-4-yl)-3-(4-(6-fluorobenzo[d]thiazol-5-yl)benzyl)urea]
25 | 1 to 5 | C#Cc1nc(C(=O)N(CCO)Cc2ccccc2)cs1 [Compound C133, N-Benzyl-2-ethynyl-N-(2-hydroxyethyl)thiazole-4-carboxamide]
26 | ≤ 0.2 | C#Cc1nc(C(=O)N2CCC(F)(c3ccc(-c4cccc5ncsc45)cc3)CC2)cs1 [Compound D11, (4-(4-(Benzo[d]thiazol-7-yl)phenyl)-4-fluoropiperidin-1-yl)(2-ethynylthiazol-4-yl)methanone]
27 | 0.2 to 1 | C#Cc1nc(C(=O)NCCc2ccc(-c3ccc4ncsc4c3)cc2)cs1 [Compound C42, N-(4-(Benzo[d]thiazol-6-yl)phenethyl)-2-ethynylthiazole-4-carboxamide]
28 | ≤ 0.2 | C#Cc1nc(C(=O)NCCc2ccc([N+](=O)[O-])cc2)cs1 [Compound C129, 2-Ethynyl-N-(4-nitrophenethyl)thiazole-4-carboxamide]
29 | > 5 | C#Cc1nc(C(=O)NCc2ccccc2)c[nH]1 [Compound C111, N-Benzyl-2-ethynyl-1H-imidazole-4-carboxamide]
30 | 0.2 to 1 | C#Cc1nc(C(=O)NCCc2ccc(Br)cc2)cs1 [Compound C80, N-(4-Bromophenethyl)-2-ethynylthiazole-4-carboxamide]
31 | 0.2 to 1 | C#Cc1nc(NC(=O)NCc2ccc(-c3cc4ncsc4c4c3CNC4=O)cc2)cs1 [Compound A4, 1-(2-Ethynylthiazol-4-yl)-3-(4-(8-oxo-7,8-dihydro-6H-thiazolo[5,4-e]isoindol-5-yl)benzyl)urea]
32 | ≤ 0.2 | C#Cc1nc(C(=O)N2CCN(c3ccc(-c4cccc5ncsc45)cc3Cl)CC2)cs1 [Compound D9, (4-(4-(Benzo[d]thiazol-7-yl)-2-chlorophenyl)piperazin-1-yl)(2-ethynylthiazol-4-yl)methanone]
33 | 1 to 5 | C#Cc1nc(C(=O)NCc2ccccn2)cs1 [Compound C126, 2-Ethynyl-N-(pyridin-2-ylmethyl)thiazole-4-carboxamide]
34 | ≤ 0.2 | C#Cc1nc(C(=O)N2CCN(c3ccc(-c4cc(C(=O)OC)cc5c4cnn5C)cc3)CC2)cs1 [Compound D2, Methyl 4-(4-(4-(2-ethynylthiazole-4-carbonyl)piperazin-1-yl)phenyl)-1-methyl-1H-indazole-6-carboxylate]
35 | 0.2 to 1 | C#Cc1nc(C(=O)NCc2cccc([N+](=O)[O-])c2)cs1 [Compound C107, 2-Ethynyl-N-(3-nitrobenzyl)thiazole-4-carboxamide]
36 | 1 to 5 | C#Cc1nc(NC(=O)NCc2ccc(-c3cccc4c3S(=O)(=O)CC4O)cc2)cs1 (stereo not shown) [Compound A2, 1-(2-Ethynylthiazol-4-yl)-3-(4-(3-hydroxy-1,1-dioxido-2,3-dihydrobenzo[b]-thiophen-7-yl)benzyl)urea]
37 | 1 to 5 | C#Cc1nc(C(=O)NCCc2ccccc2C#N)cs1 [Compound C45, N-(2-Cyanophenethyl)-2-ethynylthiazole-4-carboxamide]
38 | 0.2 to 1 | C#Cc1nc(NC(=O)N2CCc3cc(-c4cccc5ncsc45)ccc3C2)cs1 [Compound B3, 6-(Benzo[d]thiazol-7-yl)-N-(2-ethynylthiazol-4-yl)-3,4-dihydroisoquinoline-2(1H)-carboxamide]
39 | > 5 | C#Cc1ncc(C(=O)NCc2ccccc2)n1C [Compound C132, N-Benzyl-2-ethynyl-1-methyl-1H-imidazole-5-carboxamide]
40 | 1 to 5 | C#Cc1nc(C(=O)N[C@H](C)c2cccc(Cl)c2)cs1 [Compound C67, (R)—N-(1-(3-Chlorophenyl)ethyl)-2-ethynylthiazole-4-carboxamide]
41 | > 5 | C#Cc1nc(C(=O)N2CCC(C(=O)OC)CC2)cs1 [Compound D35, Methyl 1-(2-ethynylthiazole-4-carbonyl)piperidine-4-carboxylate]
42 | 0.2 to 1 | C#Cc1nc(C(=O)NCCc2ccc(-c3cc4ncsc4cc3F)cc2)cs1 [Compound C1, 2-Ethynyl-N-(4-(6-fluorobenzo[d]thiazol-5-yl)phenethyl)thiazole-4-carboxamide]
43 | 1 to 5 | C#Cc1nc(C(=O)NCc2ccccc2OC)cs1 [Compound C144, 2-Ethynyl-N-(2-methoxybenzyl)thiazole-4-carboxamide]
44 | 1 to 5 | C#Cc1nc(C(=O)Nc2cccc3cn[nH]c23)cs1 [Compound C134, 2-Ethynyl-N-(11H-indazol-7-yl)thiazole-4-carboxamide]
45 | 0.2 to 1 | C#Cc1nc(C(=O)NCc2cccc(CC(=O)OC)c2)cs1 [Compound C46, Methyl 2-(3-((2-ethynylthiazole-4-carboxamido)methyl)phenyl)acetate]
46 | > 5 | C#Cc1nc(C(=O)NCc2cccc3[nH]ccc23)cs1 [Compound C139, N-((1H-Indol-4-yl)methyl)-2-ethynylthiazole-4-carboxamide]
